# Experimental data: ChEMBL document CHEMBL4420075, “Seriniquinones, melanoma-specific anticancer agents” (2016)
# Experiments:
# Format in all cases: functional
# NCI-H23 = assay: Growth inhibition of human NCI-H23 cells assessed as cell growth incubated for 48 hrs by sulforhodamine B assay; set-up: concentration or dose not given beside the values
# HT-29 = assay: Growth inhibition of human HT-29 cells assessed as cell growth incubated for 48 hrs by sulforhodamine B assay; set-up: concentration or dose not given beside the values
# OVCAR-4 = assay: Growth inhibition of human OVCAR4 cells assessed as cell growth incubated for 48 hrs by sulforhodamine B assay; set-up: concentration or dose not given beside the values
# ACHN = assay: Growth inhibition of human ACHN cells assessed as cell growth incubated for 48 hrs by sulforhodamine B assay; set-up: scale not given: the % may be the effect or the level left
# PC-3 = assay: Growth inhibition of human PC3 cells assessed as cell growth incubated for 48 hrs by sulforhodamine B assay; set-up: concentration or dose not given beside the values
# MDA-MB-231 = assay: Growth inhibition of human MDA-MB-231 cells assessed as cell growth incubated for 48 hrs by sulforhodamine B assay; set-up: concentration or dose not given beside the values
# A498 = assay: Growth inhibition of human A498 cells assessed as cell growth incubated for 48 hrs by sulforhodamine B assay; set-up: concentration or dose not given beside the values
# UACC-62 = assay: Growth inhibition of human UACC62 cells assessed as cell growth incubated for 48 hrs by sulforhodamine B assay; set-up: concentration or dose not given beside the values
# CAKI-1 = assay: Growth inhibition of human Caki1 cells assessed as cell growth incubated for 48 hrs by sulforhodamine B assay; set-up: concentration or dose not given beside the values
# SF-268 = assay: Growth inhibition of human SF268 cells assessed as cell growth incubated for 48 hrs by sulforhodamine B assay; set-up: concentration or dose not given beside the values
# SNB-75 = assay: Growth inhibition of human SNB75 cells assessed as cell growth incubated for 48 hrs by sulforhodamine B assay; set-up: concentration or dose not given beside the values
# HOP-62 = assay: Growth inhibition of human HOP62 cells assessed as cell growth incubated for 48 hrs by sulforhodamine B assay; set-up: concentration or dose not given beside the values
# OVCAR-3 = assay: Growth inhibition of human OVCAR3 cells assessed as cell growth incubated for 48 hrs by sulforhodamine B assay; set-up: concentration or dose not given beside the values
# SF-295 = assay: Growth inhibition of human SF295 cells assessed as cell growth incubated for 48 hrs by sulforhodamine B assay; set-up: concentration or dose not given beside the values
# Malme-3M = assay: Growth inhibition of human MALME-3M cells assessed as cell growth incubated for 48 hrs by sulforhodamine B assay; set-up: scale not given: the % may be the effect or the level left
# SK-OV-3 = assay: Growth inhibition of human SKOV3 cells assessed as cell growth incubated for 48 hrs by sulforhodamine B assay; set-up: concentration or dose not given beside the values
# HCT-15 = assay: Growth inhibition of human HCT15 cells assessed as cell growth incubated for 48 hrs by sulforhodamine B assay; set-up: scale not given: the % may be the effect or the level left
# DU-145 = assay: Growth inhibition of human DU145 cells assessed as cell growth incubated for 48 hrs by sulforhodamine B assay; set-up: concentration or dose not given beside the values
# HOP-92 = assay: Growth inhibition of human HOP92 cells assessed as cell growth incubated for 48 hrs by sulforhodamine B assay; set-up: concentration or dose not given beside the values
# SK-MEL-28 = assay: Growth inhibition of human SK-MEL-28 cells assessed as cell growth incubated for 48 hrs by sulforhodamine B assay; set-up: concentration or dose not given beside the values
# SNB-19 = assay: Growth inhibition of human SNB19 cells assessed as cell growth incubated for 48 hrs by sulforhodamine B assay; set-up: concentration or dose not given beside the values
# K562 = assay: Growth inhibition of human K562 cells assessed as cell growth incubated for 48 hrs by sulforhodamine B assay; set-up: concentration or dose not given beside the values
# UO-31 = assay: Growth inhibition of human UO31 cells assessed as cell growth incubated for 48 hrs by sulforhodamine B assay; set-up: concentration or dose not given beside the values
# MDA-MB-468 = assay: Growth inhibition of human MDA-MB-468 cells assessed as cell growth incubated for 48 hrs by sulforhodamine B assay; set-up: concentration or dose not given beside the values
# 786-0 = assay: Growth inhibition of human 786-0 cells assessed as cell growth incubated for 48 hrs by sulforhodamine B assay; set-up: concentration or dose not given beside the values
# KM12 = assay: Growth inhibition of human KM12 cells assessed as cell growth incubated for 48 hrs by sulforhodamine B assay; set-up: concentration or dose not given beside the values
# OVCAR-5 = assay: Growth inhibition of human OVCAR5 cells assessed as cell growth incubated for 48 hrs by sulforhodamine B assay; set-up: scale not given: the % may be the effect or the level left
# M14 = assay: Growth inhibition of human M14 cells assessed as cell growth incubated for 48 hrs by sulforhodamine B assay; set-up: concentration or dose not given beside the values
# NCI/ADR-RES = assay: Growth inhibition of human NCI/ADR-RES cells assessed as cell growth incubated for 48 hrs by sulforhodamine B assay; set-up: concentration or dose not given beside the values
# UACC-257 = assay: Growth inhibition of human UACC257 cells assessed as cell growth incubated for 48 hrs by sulforhodamine B assay; set-up: concentration or dose not given beside the values
# Hs-578T = assay: Growth inhibition of human Hs 578T cells assessed as cell growth incubated for 48 hrs by sulforhodamine B assay; set-up: concentration or dose not given beside the values
# IGROV-1 = assay: Growth inhibition of human IGROV1 cells assessed as cell growth incubated for 48 hrs by sulforhodamine B assay; set-up: scale not given: the % may be the effect or the level left
# MCF7 = assay: Growth inhibition of human MCF7 cells assessed as cell growth incubated for 48 hrs by sulforhodamine B assay; set-up: concentration or dose not given beside the values
# T47D = assay: Growth inhibition of human T47D cells assessed as cell growth incubated for 48 hrs by sulforhodamine B assay; set-up: concentration or dose not given beside the values
# SW-620 = assay: Growth inhibition of human SW620 cells assessed as cell growth incubated for 48 hrs by sulforhodamine B assay; set-up: concentration or dose not given beside the values
# NCI-H460 = assay: Growth inhibition of human NCI-H460 cells assessed as cell growth incubated for 48 hrs by sulforhodamine B assay; set-up: concentration or dose not given beside the values
# A549 = assay: Growth inhibition of human A549/ATCC cells assessed as cell growth incubated for 48 hrs by sulforhodamine B assay; set-up: concentration or dose not given beside the values
# RPMI-8226 = assay: Growth inhibition of human RPMI8226 cells assessed as cell growth incubated for 48 hrs by sulforhodamine B assay; set-up: concentration or dose not given beside the values
# SN12C = assay: Growth inhibition of human SN12C cells assessed as cell growth incubated for 48 hrs by sulforhodamine B assay; set-up: concentration or dose not given beside the values
# TK-10 = assay: Growth inhibition of human TK10 cells assessed as cell growth incubated for 48 hrs by sulforhodamine B assay; set-up: concentration or dose not given beside the values
# SR = assay: Growth inhibition of human SR cells assessed as cell growth incubated for 48 hrs by sulforhodamine B assay; set-up: concentration or dose not given beside the values
# NCI-H322M = assay: Growth inhibition of human NCI-H322M cells assessed as cell growth incubated for 48 hrs by sulforhodamine B assay; set-up: scale not given: the % may be the effect or the level left
# SF-539 = assay: Growth inhibition of human SF539 cells assessed as cell growth incubated for 48 hrs by sulforhodamine B assay; set-up: scale not given: the % may be the effect or the level left
# OVCAR-8 = assay: Growth inhibition of human OVCAR8 cells assessed as cell growth incubated for 48 hrs by sulforhodamine B assay; set-up: concentration or dose not given beside the values
# RXF 393 = assay: Growth inhibition of human RXF393 cells assessed as cell growth incubated for 48 hrs by sulforhodamine B assay; set-up: concentration or dose not given beside the values
# MDA-MB-435 = assay: Growth inhibition of human MDA-MB-435 cells assessed as cell growth incubated for 48 hrs by sulforhodamine B assay; set-up: concentration or dose not given beside the values
# U-251 = assay: Growth inhibition of human U251 cells assessed as cell growth incubated for 48 hrs by sulforhodamine B assay; set-up: concentration or dose not given beside the values
# HL-60(TB) = assay: Growth inhibition of human HL-60(TB) cells assessed as cell growth incubated for 48 hrs by sulforhodamine B assay; set-up: concentration or dose not given beside the values
# BT-549 = assay: Growth inhibition of human BT549 cells assessed as cell growth incubated for 48 hrs by sulforhodamine B assay; set-up: concentration or dose not given beside the values
# COLO 205 = assay: Growth inhibition of human COLO205 cells assessed as cell growth incubated for 48 hrs by sulforhodamine B assay; set-up: concentration or dose not given beside the values
# NCI-H522 = assay: Growth inhibition of human NCI-H522 cells assessed as cell growth incubated for 48 hrs by sulforhodamine B assay; set-up: concentration or dose not given beside the values
# SK-MEL-5 = assay: Growth inhibition of human SK-MEL-5 cells assessed as cell growth incubated for 48 hrs by sulforhodamine B assay; set-up: concentration or dose not given beside the values
# LOX IMVI = assay: Growth inhibition of human LOXIMVI cells assessed as cell growth incubated for 48 hrs by sulforhodamine B assay; set-up: concentration or dose not given beside the values
# CCRF-CEM = assay: Growth inhibition of human CCRF-CEM cells assessed as cell growth incubated for 48 hrs by sulforhodamine B assay; set-up: concentration or dose not given beside the values
# SK-MEL-2 = assay: Growth inhibition of human SK-MEL-2 cells assessed as cell growth incubated for 48 hrs by sulforhodamine B assay; set-up: concentration or dose not given beside the values
# HCC 2998 = assay: Growth inhibition of human HCC2998 cells assessed as cell growth incubated for 48 hrs by sulforhodamine B assay; set-up: concentration or dose not given beside the values
# HCT-116 = assay: Growth inhibition of human HCT116 cells assessed as cell growth incubated for 48 hrs by sulforhodamine B assay; set-up: concentration or dose not given beside the values
# MOLT-4 = assay: Growth inhibition of human MOLT4 cells assessed as cell growth incubated for 48 hrs by sulforhodamine B assay; set-up: concentration or dose not given beside the values
# NCI-H226 = assay: Growth inhibition of human NCI-H226 cells assessed as cell growth incubated for 48 hrs by sulforhodamine B assay; set-up: concentration or dose not given beside the values
smiles,measurement,setting,value
O=C([O-])CCc1ccc2c(=O)c3sc4c(=O)c5ccccc5c(=O)c4c3c(=O)c2c1.[Na+],Activity,NCI-H23,-48.38%
same,Activity,HT-29,-35.38%
same,Activity,OVCAR-4,3.01%
same,Activity,ACHN,3.07%
same,Activity,PC-3,4.12%
same,Activity,MDA-MB-231,7.51%
same,Activity,A498,-94.19%
same,Activity,UACC-62,-86.72%
same,Activity,CAKI-1,-11.28%
same,Activity,SF-268,-4.66%
same,Activity,SNB-75,-92.01%
same,Activity,HOP-62,-94.95%
same,Activity,OVCAR-3,-20.41%
same,Activity,SF-295,-92.24%
same,Activity,Malme-3M,-95.72%
same,Activity,SK-OV-3,-20.08%
same,Activity,HCT-15,-51.47%
same,Activity,DU-145,-94.06%
same,Activity,HOP-92,21.71%
same,Activity,SK-MEL-28,-86.88%
same,Activity,SNB-19,-46.21%
same,Activity,K562,1.66%
same,Activity,UO-31,-62.16%
same,Activity,MDA-MB-468,-23.55%
same,Activity,786-0,-36.85%
same,Activity,KM12,-4.86%
same,Activity,OVCAR-5,-91.27%
same,Activity,M14,-92.46%
same,Activity,NCI/ADR-RES,-16.65%
same,Activity,UACC-257,-93.7%
same,Activity,Hs-578T,-2.26%
same,Activity,IGROV-1,-45.75%
same,Activity,MCF7,-42.17%
same,Activity,T47D,30.96%
same,Activity,SW-620,-35.47%
same,Activity,NCI-H460,-47.6%
same,Activity,A549,-52.48%
same,Activity,RPMI-8226,-23.33%
same,Activity,SN12C,-86.04%
same,Activity,TK-10,-13.65%
same,Activity,SR,-13.25%
same,Activity,NCI-H322M,-96.32%
same,Activity,SF-539,-99.93%
same,Activity,OVCAR-8,-11.99%
same,Activity,RXF 393,-40.51%
same,Activity,MDA-MB-435,-79.57%
same,Activity,U-251,-19.72%
same,Activity,HL-60(TB),-1.51%
same,Activity,BT-549,-93.17%
same,Activity,COLO 205,-95.3%
same,Activity,NCI-H522,-56.08%
same,Activity,SK-MEL-5,-98.11%
same,Activity,LOX IMVI,-79.48%
same,Activity,CCRF-CEM,-11.89%
same,Activity,SK-MEL-2,-61.62%
same,Activity,HCC 2998,-78.44%
same,Activity,HCT-116,-11.85%
same,Activity,MOLT-4,-18.02%
same,Activity,NCI-H226,-50.22%
